Test results from PubChem BioAssay (NCI).
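Protocol summary: plate cells (96-well), add compound at 5 concentrations, incubate 48 h, interpolate endpoints linearly. The concentration for full growth arrest is given as TGI.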

Legend:
Assay in all cases: NCI tumour cell line growth inhibition, 48 h
SF-295 CNS = tested on: SF-295 CNS
KM12 colon = tested on: KM12 colon
RXF-631 renal = tested on: RXF-631 renal
SF-539 CNS = tested on: SF-539 CNS
UACC-62 melanoma = tested on: UACC-62 melanoma
A498 renal = tested on: A498 renal
OVCAR-8 ovarian = tested on: OVCAR-8 ovarian
CAKI-1 renal = tested on: CAKI-1 renal
OVCAR-3 ovarian = tested on: OVCAR-3 ovarian
OVCAR-4 ovarian = tested on: OVCAR-4 ovarian
SW-620 colon = tested on: SW-620 colon
NCI-H460 lung = tested on: NCI-H460 lung
ACHN renal = tested on: ACHN renal
UO-31 renal = tested on: UO-31 renal
SK-MEL-5 melanoma = tested on: SK-MEL-5 melanoma
SK-MEL-28 melanoma = tested on: SK-MEL-28 melanoma
SK-OV-3 ovarian = tested on: SK-OV-3 ovarian
HOP-92 NSCLC = tested on: HOP-92 NSCLC
SNB-75 CNS = tested on: SNB-75 CNS
HCC-2998 colon = tested on: HCC-2998 colon
CCRF-CEM leukemia = tested on: CCRF-CEM leukemia
HT29 colon = tested on: HT29 colon
M19-MEL melanoma = tested on: M19-MEL melanoma
HCT-116 colon = tested on: HCT-116 colon
NCI-H23 lung = tested on: NCI-H23 lung
LOX IMVI melanoma = tested on: LOX IMVI melanoma
DLD-1 colon = tested on: DLD-1 colon
SNB-19 CNS = tested on: SNB-19 CNS
XF 498 CNS = tested on: XF 498 CNS
SF-268 CNS = tested on: SF-268 CNS
OVCAR-5 ovarian = tested on: OVCAR-5 ovarian
A549 NSCLC = tested on: A549 NSCLC
U251 CNS = tested on: U251 CNS
M14 melanoma = tested on: M14 melanoma
LXFL 529 NSCLC = tested on: LXFL 529 NSCLC
RPMI-8226 leukemia = tested on: RPMI-8226 leukemia
K-562 leukemia = tested on: K-562 leukemia
NCI-H226 lung = tested on: NCI-H226 lung
SK-MEL-2 melanoma = tested on: SK-MEL-2 melanoma
HOP-18 NSCLC = tested on: HOP-18 NSCLC
DMS 114 small cell lung = tested on: DMS 114 small cell lung
TK-10 renal = tested on: TK-10 renal
HOP-62 NSCLC = tested on: HOP-62 NSCLC
COLO 205 colon = tested on: COLO 205 colon
786-0 renal = tested on: 786-0 renal
SR leukemia = tested on: SR leukemia
SN12C renal = tested on: SN12C renal
EKVX NSCLC = tested on: EKVX NSCLC
DMS 273 small cell lung = tested on: DMS 273 small cell lung
UACC-257 melanoma = tested on: UACC-257 melanoma
SNB-78 CNS = tested on: SNB-78 CNS
IGROV1 ovarian = tested on: IGROV1 ovarian
MOLT-4 leukemia = tested on: MOLT-4 leukemia
MALME-3M melanoma = tested on: MALME-3M melanoma
NCI-H522 lung = tested on: NCI-H522 lung
HL-60(TB) leukemia = tested on: HL-60(TB) leukemia
P388 leukemia = tested on: P388 leukemia
P388/ADR leukemia = tested on: P388/ADR leukemia
SN12K1 renal = tested on: SN12K1 renal
KM20L2 colon = tested on: KM20L2 colon
MCF7 breast = tested on: MCF7 breast
RXF 393 renal = tested on: RXF 393 renal
NCI/ADR-RES ovarian = tested on: NCI/ADR-RES ovarian
HCT-15 colon = tested on: HCT-15 colon

CCn1c(C)nc([N+](=O)[O-])c1Sc1ncc[nH]1 was tested, and the TGI (SF-295 CNS) was greater than 100 µM, the TGI (KM12 colon) was greater than 100 µM and the TGI (RXF-631 renal) was 88 µM. It also gave a TGI (SF-539 CNS) greater than 100 µM, a TGI (UACC-62 melanoma) greater than 100 µM and a TGI (A498 renal) greater than 100 µM. It also gave a TGI (OVCAR-8 ovarian) greater than 100 µM, a TGI (CAKI-1 renal) greater than 100 µM and a TGI (OVCAR-3 ovarian) greater than 100 µM. The TGI (OVCAR-4 ovarian) was greater than 100 µM, the TGI (SW-620 colon) was greater than 100 µM and the TGI (NCI-H460 lung) was greater than 100 µM. It also gave a TGI (ACHN renal) greater than 100 µM, a TGI (UO-31 renal) greater than 100 µM and a TGI (SK-MEL-5 melanoma) greater than 100 µM. For the same molecule, the TGI (SK-MEL-28 melanoma) was greater than 100 µM, the TGI (SK-OV-3 ovarian) was greater than 100 µM and the TGI (HOP-92 NSCLC) was greater than 100 µM. The TGI (SNB-75 CNS) was greater than 100 µM, the TGI (HCC-2998 colon) was greater than 100 µM and the TGI (CCRF-CEM leukemia) was 58.7 µM. For the same molecule, the TGI (HT29 colon) was greater than 100 µM, the TGI (M19-MEL melanoma) was greater than 100 µM and the TGI (HCT-116 colon) was greater than 100 µM. The TGI (NCI-H23 lung) was 99.6 µM, the TGI (LOX IMVI melanoma) was 42.2 µM and the TGI (DLD-1 colon) was greater than 100 µM. It also gave a TGI (SNB-19 CNS) greater than 100 µM, a TGI (XF 498 CNS) greater than 100 µM and a TGI (SF-268 CNS) greater than 100 µM. The TGI (OVCAR-5 ovarian) was greater than 100 µM, the TGI (A549 NSCLC) was greater than 100 µM and the TGI (U251 CNS) was greater than 100 µM. For the same molecule, the TGI (M14 melanoma) was greater than 100 µM, the TGI (LXFL 529 NSCLC) was greater than 100 µM and the TGI (RPMI-8226 leukemia) was greater than 100 µM. It also gave a TGI (K-562 leukemia) greater than 100 µM, a TGI (NCI-H226 lung) greater than 100 µM and a TGI (SK-MEL-2 melanoma) greater than 100 µM. The TGI (HOP-18 NSCLC) was 73.8 µM, the TGI (DMS 114 small cell lung) was greater than 100 µM and the TGI (TK-10 renal) was greater than 100 µM. The TGI (HOP-62 NSCLC) was greater than 100 µM, the TGI (COLO 205 colon) was greater than 100 µM and the TGI (786-0 renal) was greater than 100 µM. It also gave a TGI (SR leukemia) greater than 100 µM, a TGI (SN12C renal) greater than 100 µM and a TGI (EKVX NSCLC) greater than 100 µM. It also gave a TGI (DMS 273 small cell lung) greater than 100 µM, a TGI (UACC-257 melanoma) greater than 100 µM and a TGI (SNB-78 CNS) greater than 100 µM. The TGI (IGROV1 ovarian) was greater than 100 µM, the TGI (MOLT-4 leukemia) was 76.8 µM and the TGI (MALME-3M melanoma) was 93.8 µM. The TGI (NCI-H522 lung) was 38.1 µM.
For C=C1C(=O)OC2C=C(C)CC3C=C(CCC=C(C)CCC12)C(=O)O3 (stereo unspecified), the TGI (SF-295 CNS) was 200 µM, the TGI (KM12 colon) was 109 µM and the TGI (SF-539 CNS) was 199 µM. It also gave a TGI (UACC-62 melanoma) of 113 µM, a TGI (HL-60(TB) leukemia) of 73.4 µM and a TGI (A498 renal) of 167 µM. It also gave a TGI (OVCAR-8 ovarian) of 174 µM, a TGI (CAKI-1 renal) of 140 µM and a TGI (OVCAR-3 ovarian) of 116 µM. It also gave a TGI (OVCAR-4 ovarian) of 131 µM, a TGI (SW-620 colon) of 107 µM and a TGI (P388 leukemia) of 85.1 µM. It also gave a TGI (NCI-H460 lung) of 148 µM, a TGI (UO-31 renal) of 234 µM and a TGI (P388/ADR leukemia) of 93.2 µM. The TGI (SK-MEL-5 melanoma) was 138 µM, the TGI (SK-MEL-28 melanoma) was 119 µM and the TGI (SK-OV-3 ovarian) was 280 µM. The TGI (HOP-92 NSCLC) was 116 µM, the TGI (SN12K1 renal) was 123 µM and the TGI (SNB-75 CNS) was 196 µM. It also gave a TGI (HCC-2998 colon) of 105 µM, a TGI (KM20L2 colon) of 119 µM and a TGI (CCRF-CEM leukemia) of 104 µM. For the same molecule, the TGI (HT29 colon) was 131 µM, the TGI (M19-MEL melanoma) was 135 µM and the TGI (HCT-116 colon) was 85.6 µM. It also gave a TGI (NCI-H23 lung) of 117 µM, a TGI (MCF7 breast) of 106 µM and a TGI (RXF 393 renal) of 82.3 µM. It also gave a TGI (LOX IMVI melanoma) of 95.1 µM, a TGI (DLD-1 colon) of 137 µM and a TGI (SNB-19 CNS) of 271 µM. For the same molecule, the TGI (SF-268 CNS) was 145 µM, the TGI (OVCAR-5 ovarian) was 208 µM and the TGI (A549 NSCLC) was 203 µM. It also gave a TGI (U251 CNS) of 121 µM, a TGI (RPMI-8226 leukemia) of 155 µM and a TGI (K-562 leukemia) of 228 µM. For the same molecule, the TGI (NCI-H226 lung) was 174 µM, the TGI (SK-MEL-2 melanoma) was 101 µM and the TGI (NCI/ADR-RES ovarian) was 114 µM. For the same molecule, the TGI (HOP-18 NSCLC) was 78.5 µM, the TGI (DMS 114 small cell lung) was 151 µM and the TGI (HOP-62 NSCLC) was 216 µM. For the same molecule, the TGI (COLO 205 colon) was 115 µM, the TGI (SN12C renal) was 157 µM and the TGI (EKVX NSCLC) was 118 µM. For the same molecule, the TGI (DMS 273 small cell lung) was 145 µM, the TGI (HCT-15 colon) was 131 µM and the TGI (UACC-257 melanoma) was 106 µM. It also gave a TGI (SNB-78 CNS) of 222 µM, a TGI (IGROV1 ovarian) of 115 µM and a TGI (MOLT-4 leukemia) of 159 µM. It also gave a TGI (MALME-3M melanoma) greater than 81.4 µM and a TGI (NCI-H522 lung) of 57.9 µM.
With CN(C)c1ccc(/C=C(\C#N)C(=O)c2ccccc2)cc1Br the TGI (SF-295 CNS) was greater than 100 µM, the TGI (KM12 colon) was greater than 100 µM and the TGI (RXF-631 renal) was greater than 100 µM. It also gave a TGI (SF-539 CNS) greater than 100 µM, a TGI (UACC-62 melanoma) greater than 100 µM and a TGI (HL-60(TB) leukemia) of 57.6 µM. It also gave a TGI (OVCAR-8 ovarian) greater than 100 µM, a TGI (CAKI-1 renal) greater than 100 µM and a TGI (OVCAR-3 ovarian) greater than 100 µM. The TGI (OVCAR-4 ovarian) was greater than 100 µM, the TGI (SW-620 colon) was greater than 100 µM and the TGI (NCI-H460 lung) was greater than 100 µM. It also gave a TGI (ACHN renal) greater than 100 µM, a TGI (UO-31 renal) greater than 100 µM and a TGI (SK-MEL-5 melanoma) greater than 100 µM. It also gave a TGI (SK-MEL-28 melanoma) greater than 100 µM, a TGI (SK-OV-3 ovarian) greater than 100 µM and a TGI (HOP-92 NSCLC) greater than 100 µM. The TGI (SNB-75 CNS) was greater than 100 µM, the TGI (HCC-2998 colon) was greater than 100 µM and the TGI (KM20L2 colon) was greater than 100 µM. It also gave a TGI (CCRF-CEM leukemia) greater than 100 µM, a TGI (HT29 colon) greater than 100 µM and a TGI (HCT-116 colon) greater than 100 µM. For the same molecule, the TGI (NCI-H23 lung) was greater than 100 µM, the TGI (RXF 393 renal) was 29.6 µM and the TGI (LOX IMVI melanoma) was 74.2 µM. It also gave a TGI (DLD-1 colon) greater than 100 µM, a TGI (SNB-19 CNS) greater than 100 µM and a TGI (XF 498 CNS) greater than 100 µM. It also gave a TGI (SF-268 CNS) greater than 100 µM, a TGI (OVCAR-5 ovarian) greater than 100 µM and a TGI (A549 NSCLC) greater than 100 µM. The TGI (U251 CNS) was greater than 100 µM, the TGI (M14 melanoma) was greater than 100 µM and the TGI (LXFL 529 NSCLC) was greater than 100 µM. The TGI (RPMI-8226 leukemia) was 63.4 µM, the TGI (K-562 leukemia) was greater than 100 µM and the TGI (NCI-H226 lung) was greater than 100 µM. For the same molecule, the TGI (SK-MEL-2 melanoma) was greater than 100 µM, the TGI (HOP-18 NSCLC) was greater than 100 µM and the TGI (DMS 114 small cell lung) was greater than 100 µM. It also gave a TGI (TK-10 renal) greater than 100 µM, a TGI (HOP-62 NSCLC) of 39.6 µM and a TGI (COLO 205 colon) greater than 100 µM. It also gave a TGI (786-0 renal) greater than 100 µM, a TGI (SR leukemia) greater than 100 µM and a TGI (SN12C renal) greater than 100 µM. The TGI (EKVX NSCLC) was greater than 100 µM, the TGI (DMS 273 small cell lung) was greater than 100 µM and the TGI (UACC-257 melanoma) was greater than 100 µM. It also gave a TGI (SNB-78 CNS) greater than 100 µM, a TGI (MOLT-4 leukemia) greater than 100 µM and a TGI (MALME-3M melanoma) greater than 100 µM. It also gave a TGI (NCI-H522 lung) greater than 100 µM.
